Reference: ChEMBL document CHEMBL6096689, “Structure-Guided Development of ClpP Agonists with Potent Therapeutic Activities against Staphylococcus aureus Infection” (J Med Chem, 2025)
Values after ≈ are worked out from the molar mass of the structure shown. Active and inactive are the calls of the source. The rule behind the calls is not given here.

Experiments:
Staphylococcus aureus [1] = experiment: microbe, parasite or virus in culture; type: functional; conditions: time 18 hrs
Description: Antibacterial activity against multidrug-resistant Staphylococcus aureus clinical isolate XJ049 assessed as inhibition of visible growth of bacteria incubated for 18 hrs by absorbance based analysis

[2] = Agonist activity at Lactobacillus acidophilus ClpP using alpha-casein as substrate assessed as substrate hydrolysis preincubated for 15 mins followed by substrate addition and measured after 2 hrs by SDS-PAGE analysis
[3] = biological target: ATP-dependent Clp protease proteolytic subunit (Escherichia coli (strain K12), UniProt P0A6G7); experiment: Agonist activity at Escherichia coli ClpP using alpha-casein as substrate assessed as substrate hydrolysis preincubated for 15 mins followed by substrate addition and measured after 2 hrs by SDS-PAGE analysis
Sequence of ATP-dependent Clp protease proteolytic subunit (Escherichia coli (strain K12), UniProt P0A6G7) (P0A6G7 whole entry): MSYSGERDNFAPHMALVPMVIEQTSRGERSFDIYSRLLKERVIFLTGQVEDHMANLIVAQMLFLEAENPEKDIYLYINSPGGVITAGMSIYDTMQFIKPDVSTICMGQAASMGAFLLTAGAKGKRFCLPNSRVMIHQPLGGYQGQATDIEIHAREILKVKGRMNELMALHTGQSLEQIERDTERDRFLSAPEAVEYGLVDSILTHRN

Staphylococcus aureus [4] = experiment: Antibacterial activity against Staphylococcus aureus 8325-4 harboring ClpP mutant assessed as inhibition of visible growth of bacteria incubated for 18 hrs by absorbance based assay; type: functional
[5] = biological target: T1, ATP-dependent Clp protease proteolytic subunit (Staphylococcus aureus (strain NCTC 8325), UniProt Q2G036); experiment: Agonist activity at Staphylococcus aureus ClpP extracted from Escherichia coli BL21 (DE3) cells using FITC-casein as substrate assessed as substrate hydrolysis preincubated for 60 mins followed by substrate addition and measured after 1 hrs by fluorescence based analysis
T1 sequence (Q2G036 whole entry): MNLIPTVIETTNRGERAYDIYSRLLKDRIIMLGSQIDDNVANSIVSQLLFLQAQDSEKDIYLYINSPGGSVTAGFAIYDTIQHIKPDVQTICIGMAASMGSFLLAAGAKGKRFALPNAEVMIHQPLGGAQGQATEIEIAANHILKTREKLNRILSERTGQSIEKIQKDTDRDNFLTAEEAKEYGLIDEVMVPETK

Staphylococcus aureus [6] = experiment: microbe, parasite or virus in culture; type: functional; conditions: Newman, time 18 hrs
Description: Antibacterial activity against Staphylococcus aureus Newman assessed as inhibition of visible growth of bacteria incubated for 18 hrs by absorbance based analysis

Staphylococcus aureus [7] = experiment: microbe, parasite or virus in culture; type: functional; conditions: time 18 hrs; remark: listed apart in the source
Description: Antibacterial activity against multidrug-resistant Staphylococcus aureus clinical isolate XJ051 assessed as inhibition of visible growth of bacteria incubated for 18 hrs by absorbance based analysis

Staphylococcus aureus [8] = experiment: Antibacterial activity against Staphylococcus aureus USA300 infected in Zebrafish infection model assessed as increase in zebrafish survival at 5 mg/kg pre-infected for 1 hrs followed by compound addition and measured after 5 days; type: functional, organism-based; conditions: time 5.0 day
Staphylococcus aureus [9] = experiment: Antibacterial activity against CLpP complemented Staphylococcus aureus 8325-4 assessed as inhibition of visible growth of bacteria incubated for 18 hrs by absorbance based assay; type: functional, organism-based
[10] = biological target: T1, ATP-dependent Clp protease proteolytic subunit; experiment: Agonist activity at Staphylococcus aureus ClpP extracted from Escherichia coli BL21 (DE3) cells using alpha-casein as substrate assessed as substrate hydrolysis preincubated for 15 mins followed by substrate addition and measured after 2 hrs by SDS-PAGE analysis
Staphylococcus aureus [11] = experiment: Antibacterial activity against Staphylococcus aureus USA300 infected in female ICR mouse peritonitis model assessed as reduction in bacterial load in lung at 25 to 100 mg/kg, ip pre-infected for 1 hrs followed by compound addition and measured after 5 days relative to control; type: functional; conditions: dose 25-100 mg/kg, time 5 day
[12] = biological target: T2, ATP-dependent Clp protease proteolytic subunit (Staphylococcus aureus (strain NCTC 8325)) (UniProt Q2G036); experiment: Agonist activity at Staphylococcus aureus ClpP extracted from Escherichia coli BL21 (DE3) cells assessed as induction of ClpP-mediated staphylococcus aureus FtsZ degradation preincubated for 15 mins followed by FtsZ addition by SDS-PAGE analysis; conditions: filed as agonist, time <= 105.0 min
T2 sequence (whole entry): T1 sequence (Q2G036 whole entry)

Staphylococcus aureus [13] = experiment: microbe, parasite or virus in culture; type: functional; conditions: NRS-1, time 18 hrs
Description: Antibacterial activity against methicillin-resistant Staphylococcus aureus NRS-1 assessed as inhibition of visible growth of bacteria incubated for 18 hrs by absorbance based analysis

[14] = Toxicity in female ICR mouse model of peritonitis infected with Staphylococcus aureus USA300 assessed as effect on body weight at 50 mg/kg, ip pre-infected for 1 hrs followed by compound addition and measured after 5 days; type: organism-based; conditions: in vivo, 120 h, time 5 day

SMILES: CC[C@H](C)[C@H]1C(=O)N(Cc2ccc(OC)c3ccccc23)C[C@@H]2N(C(=O)NCCCC(F)(F)F)CCC(=O)N12
- MIC (Staphylococcus aureus [1]): 0.13 mg/L (≈ 0.237 µM)
- EC50 [2]: > 100 µM
- EC50 [3]: > 100 µM
- MIC (Staphylococcus aureus [4]): > 128 mg/L
- EC50 [5]: 0.33 µM
- MIC (Staphylococcus aureus [6]): 0.063 mg/L (≈ 0.115 µM)
- MIC (Staphylococcus aureus [7]): 0.03 mg/L (≈ 0.0547 µM)
- Activity (Staphylococcus aureus [8]): Active; Comparable To 25 Mg/Kg Of (R)-Zg197
- Activity (Staphylococcus aureus [9]): Active
- EC50 [10]: 1.1 µM
- Activity (Staphylococcus aureus [11]): 2 log10CFU/g
- Activity [12]: Time-dependent-effect
- MIC (Staphylococcus aureus [13]): 0.13 mg/L (≈ 0.237 µM)
- Activity [14]: Non-toxic
